Experimental data reported in publication PMC8878317, “Chemogenomics identifies acetyl-coenzyme A synthetase as a target for malaria treatment and prevention” (Cell Chemical Biology, 2022).

Columns and labels:
PfAcAS WT = PfAcAS WT (Plasmodium falciparum, UniProt C6KTB4); test: EnzChek assay, recombinant PfAcAS WT (steady-state kinetics and IC50); assay type: biochemical, P. falciparum
Protocol: (§1) Steady-state kinetic measurements were conducted at room temperature using a PheraStar plate reader (BMG). The first step of the reaction of PfAcAS, which produces inorganic pyrophosphate (PPi) that is converted to two molecules of inorganic phosphate using a pyrophosphatase enzyme, was continuously monitored using the EnzChek Phosphate Assay Kit, which gives an absorbance readout at 360 nm (Figure 4A) ([Webb, 1992]). […] By adding CoA, the reaction rapidly proceeds to the second step resulting in further release of pyrophosphate, making the EnzChek assay a suitable option to continuously monitor the activity of PfAcAS. Typical kinetic assays were carried out in clear, flat-bottom, polystyrene, 384-well plates (Greiner) in an 80 μL reaction volume containing 100 mM HEPES (pH7.4), 100 mM NaCl, 250 mM KCl, 50 mM MgCl2, 1 mM DTT, 0.004% Tween 20, 0.5 U/mL pyrophosphatase, 0.1 mM MESG, 0.5 U/mL PNP, 2 mM ATP, 2 mM acetate, 0.5 mM CoA and 5 nM recombinant PfAcAS WT or 10 nM recombinant PfAcAS A597V or T648M. Assays were performed by adding 40 μL of a 2-times concentrated substrate mixture including MESG to all wells, and the reactions started by adding 40 μL of a 2-times concentrated reaction mixture containing all other components. The reactions were carried out for 2 to 4 hr with absorbance readings at 360 nm every two to four minutes. Reaction rates were extracted from the linear phase of activity, usually using 10 to 20 points between times of 30 and 100 min of the reactions. Using a phosphate standard curve obtained under the same buffer conditions used for the PfAcAS reactions (Figure S5A), the rates were then converted to velocity per second, conversion of one nanomolar of phosphate, per nanomolar of enzyme, per second. The substrates Km values were determined by varying the concentration of one of the substrates at saturating concentration of the other two substrates. Steady-state data were fitted using the nonlinear, least-squares, curve-fitting programs of Sigma-Plot for Windows, version 14.0. Individual saturation curves were fit to Equation 1(Equation 1) v=VS/K+S where V is the maximal velocity, S is the substrate concentration and K is the Michaelis constant for the substrate (Km). Individual saturation curves displaying substrate inhibition were fit to Equation 2(Equation 2) v=VS/K+S×(1+S/Ks) where Ks is the substrate inhibition constant.
(§2) To determine the steady-state inhibition parameters and patterns associated with both inhibitors, PfAcAS activity was studied in the presence of variable concentrations of one substrate, ATP, acetate or CoA, fixed saturating concentration of the other two substrates (acetate and CoA, ATP and CoA, or ATP and acetate) and several fixed concentrations of inhibitor. Assay ready plates containing different concentrations of inhibitor were prepared using an Echo 550 acoustic dispenser (Labcyte Inc.). The assays were carried out as described in the previous section. […] For better comparison between both inhibitors and proteins, the ymin was fixed to zero and the ymax to 100. Inhibition data showing linear, competitive patterns in double-reciprocal plots were fit to Equation 4(Equation 4) v=VS/K(1+I/Ki)+S where Ki is the dissociation constant for the enzyme-inhibitor complex. Inhibition data showing linear, mixed inhibition patterns in double-reciprocal plots were fit to Equation 5(Equation 5) v=VS/K(1+I/Kis)+S(1+I/Kii) where Kis is the dissociation constant for the free enzyme-inhibitor complex and Kii is the dissociation constant for the enzyme-substrate-inhibitor complex. Inhibition data showing linear, uncompetitive patterns in double-reciprocal plots were fit to Equation 6(Equation 6) v=VS/K+S(1+I/Ki)

[1] = system: histone acetylation in P. falciparum 3D7-T648M; test: Histone acetylation Western blot, drug-selected 3D7-T648M; assay type: cell-based; conditions: trophozoites, 3 h exposure
Protocol: (§3) Synchronous trophozoite-stage (24-32hr post-invasion) cultures at 3–5% parasitemia and 2% hematocrit in complete medium were exposed to test compounds for 3 hr at 37°C. […] DMSO was tested at 0.1% as the vehicle-only control. Following drug exposure, parasites were isolated via saponin lysis ice-cold 0.1% saponin in phosphate-buffered saline (PBS). Isolated parasites were washed 3x in ice-cold PBS containing protease inhibitor cocktail (cOmplete mini, Roche) and lysed in 1x Laemmli Sample Buffer (Biorad) with 5% beta-mercaptoethanol (Sigma-Aldrich). Samples were heated at 99°C for 10 min before centrifugation. Equal quantities of solute were separated on Protean TGX Precast Gels (4–20% gradient) in Tris-SDS-glycine buffer, transferred to nitrocellulose membrane by iblot (Invitrogen), and blocked for 1h in tris-buffered saline (TBS) with 5% skim milk powder. Blocked membranes were probed with antibodies recognising tetra-acetylated H4 (H4ac4, Sigma-Aldrich 06–866), H4K8ac (CST #2594), H3K9ac (CST #9649) or H3 (CST #4499), at 1:1000 dilution, and PfBiP ([Shonhai et al., 2007]) (at 1:5000 dilution) in 3% milk powder TBS with 0.1% Tween 20 at 4°C overnight and with 800CW goat α-rabbit IgG (Licor) at 1:10,000 dilution. Membranes were visualised using a Licor Odyssey CLX imaging system and quantified using ImageJ.

PfAcAS A597V = molecular target: T1, PfAcAS A597V (Plasmodium falciparum, UniProt C6KTB4, A597V); test: EnzChek assay, recombinant PfAcAS A597V; assay type: biochemical, P. falciparum
T1 sequence (C6KTB4 1-997 A597V): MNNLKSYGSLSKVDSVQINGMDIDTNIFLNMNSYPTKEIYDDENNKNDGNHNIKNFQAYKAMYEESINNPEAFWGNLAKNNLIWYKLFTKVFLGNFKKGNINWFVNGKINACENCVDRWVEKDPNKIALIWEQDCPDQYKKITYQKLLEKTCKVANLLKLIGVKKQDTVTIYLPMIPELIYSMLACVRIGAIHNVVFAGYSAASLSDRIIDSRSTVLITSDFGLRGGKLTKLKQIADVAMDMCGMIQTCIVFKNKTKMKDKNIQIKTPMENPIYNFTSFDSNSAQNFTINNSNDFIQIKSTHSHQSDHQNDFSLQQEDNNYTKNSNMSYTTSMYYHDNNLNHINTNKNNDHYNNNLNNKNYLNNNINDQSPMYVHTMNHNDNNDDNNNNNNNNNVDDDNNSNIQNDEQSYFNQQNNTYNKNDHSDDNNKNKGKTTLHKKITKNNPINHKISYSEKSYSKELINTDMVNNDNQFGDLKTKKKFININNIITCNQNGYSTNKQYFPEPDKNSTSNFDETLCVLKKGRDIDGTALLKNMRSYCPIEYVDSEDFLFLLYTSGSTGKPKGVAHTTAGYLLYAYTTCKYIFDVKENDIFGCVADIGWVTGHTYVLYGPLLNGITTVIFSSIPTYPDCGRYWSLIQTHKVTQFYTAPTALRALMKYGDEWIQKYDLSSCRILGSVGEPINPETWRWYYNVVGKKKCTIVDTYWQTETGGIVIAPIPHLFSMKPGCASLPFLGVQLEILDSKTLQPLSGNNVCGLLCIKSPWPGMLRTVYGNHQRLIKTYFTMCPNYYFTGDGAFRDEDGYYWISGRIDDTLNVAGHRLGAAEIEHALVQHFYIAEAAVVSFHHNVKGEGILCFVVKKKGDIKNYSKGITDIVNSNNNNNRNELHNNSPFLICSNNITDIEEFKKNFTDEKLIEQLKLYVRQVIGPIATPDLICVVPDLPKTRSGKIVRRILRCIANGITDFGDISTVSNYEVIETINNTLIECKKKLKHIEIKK
Protocol: as §1, §2

[2] = system: histone acetylation in P. falciparum Dd2 parent; test: Histone acetylation Western blot, Dd2 parent; assay type: cell-based; conditions: trophozoites, 3 h exposure
Protocol: as §3

[3] = system: liver-stage P. berghei parasites (Pbluc); test: Liver-stage P. berghei assay (Pbluc); assay type: cell-based; conditions: Plasmodium berghei

Row | SMILES | Hill, AcAS WT (PfAcAS WT) | IC50 (PfAcAS WT) | histone acetylation in 3D7-T648M parasite line [1] | Hill, AcAS A597V (PfAcAS A597V) | IC50 (PfAcAS A597V) | histone acetylation in Dd2 parent [2] | EC50 [3]
1 | CCN(CC)S(=O)(=O)c1ccc(Cl)c(C(=O)Nc2ccc3nc(C)sc3c2)c1 [MMV019721] | 0.85 ± 0.04 | 73 ± 4 nM | little to no measurable effect | 0.58 ± 0.05 | 6900 ± 1200 nM | dose-dependent reduction | 2100 nM
2 | O=C(NNC(=O)c1csnn1)c1ccc(Cl)cc1 [MMV084978] | 0.85 ± 0.06 | 370 ± 40 nM | protection |  | > 100000 nM |  | 520 ± 210 nM
